Data taken from patent US8436180B2, “Substituted-4-aryl-1,4-dihydro-1,6-naphthyridinamides and use thereof” (Bayer Intellectual Property GmbH, priority 2007, dated 2013).

Assays:
[1] = tested on: aldosterone-induced sodium retention; test: In vivo assay for detecting anti-mineralocorticoid activity on anesthetized dogs; set-up: species or system dog; conditions: anesthetized dogs under continuous aldosterone infusion (0.6 μg/kg/h); positive control
Protocol: In Vivo Assay for Detecting Anti-Mineralocorticoid Activity on Anesthetized Dogs
Male or female mongrel dogs (mongrels, Marshall BioResources, USA) with a weight between 20 and 30 kilograms are anesthetized with pentobarbital (30 mg/kg intravenously; Narcoren®, Merial, Germany). Alcuronium chloride (3 mg/animal intravenously; Alloferin®, ICN Pharmaceuticals, Germany) is used in addition as muscle relaxant. The dogs are intubated and ventilated with an oxygen/ambient air mixture (40/60 Vol.-%) (about 5-6 liters/min). The ventilation takes place with a ventilator supplied by Draeger (Sulla 808) and is monitored with a CO2 analyzer (from Engstrom). […]
The primary aim of the test is to investigate the effect of test compounds with antimineralocorticoid receptor activity on the aldosterone-induced sodium retention. […] A continuous infusion of aldosterone (0.6 μg/kg/h) leads after 3 hours to a decrease in the sodium/potassium ratio in the urine (sodium and potassium are determined by flame photometry). […]
The primary signals are amplified if necessary (Gould amplifier, Gould Instrument Systems, Valley View, USA or Edwards Vigilance-Monitor, Edwards, Irvine, USA) and subsequently fed into the Ponemah system (DataSciences Inc., Minneapolis, USA) for analysis. The signals are recorded continuously throughout the test period, further processed digitally by this software and averaged over 30 seconds.

[2] = target: T1, human mineralocorticoid receptor (MR) (Homo sapiens, UniProt P08235); test: Cellular in vitro assay to determine the inhibitory MR activity (GAL4-MR chimera luciferase reporter in CHO K1 cells); format: cell-based; conditions: antagonism of aldosterone-stimulated luciferase activity
T1 construct: expressed in transfected cells; host or cells: CHO K1 (Chinese hamster ovary), stably transfected
T1 sequence (P08235 734-984 limits assumed): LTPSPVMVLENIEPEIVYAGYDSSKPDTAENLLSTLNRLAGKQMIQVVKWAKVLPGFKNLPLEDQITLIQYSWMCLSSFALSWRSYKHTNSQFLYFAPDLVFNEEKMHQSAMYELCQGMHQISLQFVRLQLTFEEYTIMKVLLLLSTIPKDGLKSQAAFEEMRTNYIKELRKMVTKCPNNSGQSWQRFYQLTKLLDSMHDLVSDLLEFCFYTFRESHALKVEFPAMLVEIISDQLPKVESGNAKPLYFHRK
Source text: 1. Cellular In Vitro Assay to Determine the Inhibitory MR Activity and MR Selectivity Compared with Other Steroid Hormone Receptors
Antagonists of the human mineralocorticoid receptor (MR) are identified, and the activity of the compounds described herein is quantified with the aid of a recombinant cell line. The cell is originally derived from a hamster ovary epithelial cell (Chinese Hamster Ovary, CHO K1, ATCC: American Type Culture Collection, VA 20108, USA).
An established chimera system in which the ligand-binding domains of human steroid hormone receptors are fused to the DNA-binding domain of the yeast transcription factor GAL4 is used in this CHO K1 cell line. The GAL4-steroid hormone receptor chimeras produced in this way are cotransfected and stably expressed with a reporter construct in the CHO cells.
To generate the GAL4-steroid hormone receptor chimeras, the GAL4 DNA binding domain (amino acids 1-147) from the vector pFC2-dbd (from Stratagene) is cloned with the PCR-amplified ligand-binding domains of the mineralocorticoid receptor (MR, amino acids 734-985), of the glucocorticoid receptor (GR, amino acids 443-777), of the progesterone receptor (PR, amino acids 680-933) and of the androgen receptor (AR, amino acids 667-919) into the vector pIRES2 (from Clontech). […]
The MR, GR, PR and AR cells are plated out in medium (Optimem, 2.5% FCS, 2 mM glutamine, 10 mM HEPES) in 96- (or 384- or 1536-) well microtiter plates on the day before the assay and are kept in a cell incubator (96% humidity, 5% v/v CO2, 37° C.). […] After a further incubation time of 5 to 6 hours, the luciferase activity is measured with the aid of a video camera. The measured relative light units as a function of the substance concentration result in a sigmoidal stimulation curve. The IC50 values are calculated with the aid of the GraphPad PRISM computer program (Version 3.02).

Structure (SMILES): CC(=O)S[C@@H]1CC2=CC(=O)CC[C@]2(C)[C@H]2CC[C@@]3(C)[C@@H](CC[C@@]34CCC(=O)O4)[C@H]12 [Spironolactone]
- sodium/potassium ratio in the urine [1]: increases the sodium/potassium ratio in the urine dose-dependently

Structure (SMILES): CCOc1nccc2c1C(c1ccc(C#N)cc1OC)C(C(N)=O)=C(C)N2 (stereo not shown) [Example 1, 4-(4-Cyano-2-methoxyphenyl)-5-ethoxy-2-methyl-1,4-dihydro-1,6-naphthyridine-3-carboxamide]
- IC50 [2]: 35 nM

Structure (SMILES): CCOc1ncc(C)c2c1[C@H](c1ccc(C#N)cc1OC)C(C(N)=O)=C(C)N2 [5 [(−)-enantiomer]]
- IC50 [2]: 16 nM

Structure (SMILES): CCOc1ncc(C)c2c1C(c1ccc(C#N)cc1OC)C(C(N)=O)=C(C)N2 (racemic) [Example 4, 4-(4-Cyano-2-methoxyphenyl)-5-ethoxy-2,8-dimethyl-1,4-dihydro-1,6-naphthyridine-3-carboxamide]
- IC50 [2]: 23 nM
